The target of the assay is T1, Receptor-interacting serine/threonine-protein kinase 1 (Homo sapiens, UniProt Q13546).
T1 sequence (Q13546 whole entry): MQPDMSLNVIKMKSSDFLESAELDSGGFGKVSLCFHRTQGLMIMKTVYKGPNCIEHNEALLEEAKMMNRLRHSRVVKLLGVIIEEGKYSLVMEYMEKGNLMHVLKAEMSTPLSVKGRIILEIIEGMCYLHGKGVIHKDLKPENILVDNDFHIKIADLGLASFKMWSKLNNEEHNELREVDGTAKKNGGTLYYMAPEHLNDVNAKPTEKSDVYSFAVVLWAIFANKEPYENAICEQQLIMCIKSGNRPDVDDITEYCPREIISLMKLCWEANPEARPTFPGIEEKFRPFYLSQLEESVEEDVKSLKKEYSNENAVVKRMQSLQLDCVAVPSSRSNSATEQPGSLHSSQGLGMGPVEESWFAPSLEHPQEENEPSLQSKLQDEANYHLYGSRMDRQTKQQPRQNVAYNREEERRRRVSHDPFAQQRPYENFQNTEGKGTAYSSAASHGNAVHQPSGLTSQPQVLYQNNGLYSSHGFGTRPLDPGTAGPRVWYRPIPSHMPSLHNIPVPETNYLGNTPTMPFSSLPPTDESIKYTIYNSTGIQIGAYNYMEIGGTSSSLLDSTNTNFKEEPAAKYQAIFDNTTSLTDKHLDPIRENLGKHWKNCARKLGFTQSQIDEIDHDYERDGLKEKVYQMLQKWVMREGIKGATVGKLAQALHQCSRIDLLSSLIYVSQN
Description: Fluorescent Polarization Binding (FP Binding) assay. The text has this: For negative control the enzyme addition was replaced by assay buffer only.

For the compound `O=C(N[C@H]1COc2ccccc2-n2cnnc21)c1cc(Cc2ccccc2)[nH]n1` [US9815850, Compound 70A], the IC50 entry is “in the range around 0.5 µM”.

Values taken from BindingDB's records for patent US9815850 (Denali Therapeutics Inc., 2017).
